Results taken from patent publication US10925856B2, “Methods and compositions involving bucindolol for the treatment of atrial fibrillation” (priority 2018, dated 2021).
Like-named read-outs stand apart in the source and are kept apart here.

What was measured:
[1] = in vivo; cited from earlier work
[2] = CYP2D6 Extensive/Ultra Metabolizer
[3] = Drug Titration Period (first 42 days)
[4] = treatment-emergent AE, total follow-up

## CC(C)(Cc1c[nH]c2ccccc12)NCC(O)COc1ccccc1C#N (centres unmarked) [bucindolol, 2-(3-(1-(1H-indol-3-yl)-2-methylpropan-2-ylamino)-2-hydroxypropoxy)benzonitrile]
[1]
  Bioavailability: approximately 30%
[2]
  HEADACHE, % of patients: (4.8%)
  HEADACHE, number of patients: 5
  HYPOTENSION, % of patients: (9.5%)
  HYPOTENSION, number of patients: 10
  IMMUNE SYSTEM DISORDERS, % of patients: (1.0%)
  IMMUNE SYSTEM DISORDERS, number of patients: 1
  INFECTIONS AND INFESTATIONS, % of patients: (28.6%)
  INFECTIONS AND INFESTATIONS, number of patients: 30
  INFLUENZA, % of patients: (2.9%)
  INFLUENZA, number of patients: 3
CYP2D6 Poor Metabolizer
  HEADACHE, % of patients: (0.0%)
  HEADACHE, number of patients: 0
  INFECTIONS AND INFESTATIONS, % of patients: (33.3%)
  INFECTIONS AND INFESTATIONS, number of patients: 4
  INFLUENZA, % of patients: (8.3%)
  INFLUENZA, number of patients: 1
  UPPER RESPIRATORY TRACT INFECTION, % of patients: (8.3%)
  UPPER RESPIRATORY TRACT INFECTION, number of patients: 1
[3]
  AC mortality or CV hosp or treatment disc. due to AE, patients N (%): 5 (4%)
  All-cause mortality, patients N (%): 0 (0%)
GENETIC-AF, all randomized patients
  AEs leading to study withdrawal (excluding death): 1.5%
Total Study On-Drug Period
  Adverse event leading to death, patients N (%): 2.3%
  Adverse events leading to study withdrawal (excluding death), patients N (%): 2 (1.5%)
Total Study On-Drug Period, listed as Bucindolol
  Adverse event leading to death, patients N (%): 3 (2.3%)
human, in vivo
  AE SOC frequency: Cardiac Disorders: 25.4%
  AE SOC frequency: Eye Disorders: 6.0%
  AE SOC frequency: Gastrointestinal Disorders: 20.9%
  AE SOC frequency: Hepatobiliary Disorders: 3.7%
  AE SOC frequency: Infections and Infestations: 28.4%
  AE SOC frequency: Investigators: 12.7%
  AE SOC frequency: Metabolism and Nutrition Disorders: 14.2%
  AE SOC frequency: Musculoskeletal and Connective Tissue Disorders: 25.4%
  AE SOC frequency: Neoplasms Benign Malignant and Unspecified: 2.2%
  AE SOC frequency: Renal and Urinary Disorders: 10.4%
  AE SOC frequency: Respiratory, Thoracic and Mediastinal Disorders: 15.7%
  AE frequency: arthralgia: 5.2%
  AE frequency: cardiac failure: 5.2%
  AE frequency: chronic kidney disease: 3.0%
  AE frequency: constipation: 6.0%
  AE frequency: epistaxis: 3.0%
  AE frequency: hematuria: 3.0%
  AE frequency: hypomagnesaemia: 3.0%
  AE frequency: hypotension: 9.7%
  AE frequency: pneumonia: 3.0%
  AE frequency: upper respiratory tract infection: 6.0%
  AE of symptomatic bradycardia or bradycardia leading to dose reduction or discontinuation of study drug, patients N (%): 4 (3.0%)
  AEs leading to permanent study drug discontinuation: 8.2%
  AEs: Bradycardia: 3.7%
  AEs: Stroke (99% on OACs): 0.0%
  Adverse event possible/probably related to study drug, patients N (%): 32 (23.9%)
  Adverse events leading to permanent study drug discontinuation, patients N (%): 11 (8.2%)
  Adverse events related to neoplasm, patients N (%): 3 (2.2%)
  Any bradycardia event, % of patients: (4%)
  Any bradycardia event, number of patients: 5
  Any bradycardia, % of patients: (4%)
  Any bradycardia, number of patients: 5
  Any serious adverse event, % of patients: (25%)
  Any serious adverse event, number of patients: 33
  Asymptomatic bradycardia event, % of patients: (0%)
  Asymptomatic bradycardia event, number of patients: 0
  Asymptomatic bradycardia, % of patients: (0%)
  Asymptomatic bradycardia, number of patients: 0
  Bradycardia event leading to study drug discontinuation, % of patients: (1%)
  Bradycardia event leading to study drug discontinuation, number of patients: 1
  Bradycardia event leading to study drug dose interruption, % of patients: (0%)
  Bradycardia event leading to study drug dose interruption, number of patients: 0
  Bradycardia event leading to study drug dose reduction, % of patients: (2%)
  Bradycardia event leading to study drug dose reduction, number of patients: 3
  CAD, % of patients: (6%)
  CAD, number of patients: 8
  Cardiac AE rate (heart failure or bradycardia events): 25%
  Cardiovascular serious adverse event, % of patients: (9%)
  Cardiovascular serious adverse event, number of patients: 12
  Catheterization, % of patients: (4%)
  Catheterization, number of patients: 5
  Heart block (Mobitz I/II, 2:1, or 3rd degree), % of patients: (0%)
  Heart block (Mobitz I/II, 2:1, or 3rd degree), number of patients: 0
  ICD Implantation, % of patients: (4%)
  ICD Implantation, number of patients: 5
  Incidence of Cr > 3.0, % of patients: (1%)
  Incidence of Cr > 3.0, number of patients: 1
  Incidence of bilirubin > 2.0, % of patients: (1%)
  Incidence of bilirubin > 2.0, number of patients: 1
  Non-CNS Embolism, % of patients: (0%)
  Non-CNS Embolism, number of patients: 0
  Pacemaker Implantation, % of patients: (1%)
  Pacemaker Implantation, number of patients: 1
  REPRODUCTIVE SYSTEM AND BREAST DISORDERS, % of patients: (0.0%)
  REPRODUCTIVE SYSTEM AND BREAST DISORDERS, number of patients: 0
  SAE SOC frequency: Infections and Infestations: 4.5%
  SAE SOC frequency: Renal and Urinary Disorders: 3.0%
  SAE SOC frequency: Respiratory, Thoracic and Mediastinal Disorders: 5.2%
  SAE frequency: Cardiac Failure: 3.0%
  SAE frequency: Cardiac Failure Congestive: 2.2%
  SAEs: Any cardiovascular event: 9.0%
  SINUS BRADYCARDIA, % of patients: (0.0%)
  SINUS BRADYCARDIA, number of patients: 0
  Stroke, % of patients: (0%)
  Stroke, number of patients: 0
  Symptomatic bradycardia event, % of patients: (4%)
  Symptomatic bradycardia event, number of patients: 5
  Symptomatic bradycardia, % of patients: (4%)
  Symptomatic bradycardia, number of patients: 5
  TIA, % of patients: (0%)
  TIA, number of patients: 0
  UPPER RESPIRATORY TRACT INFECTION, % of patients: (5.7%)
  UPPER RESPIRATORY TRACT INFECTION, number of patients: 6
human, in vivo, 42 days
  All-cause hospitalization, patients N (%): 7 (5%)
  Any serious adverse event, patients N (%): 8 (6%)
  Asymptomatic bradycardia, patients N (%): 0 (0%)
  Cardiovascular hospitalization, patients N (%): 5 (4%)
  Heart failure hospitalization, patients N (%): 1 (1%)
  Symptomatic bradycardia, patients N (%): 2 (1%)
  Treatment-related cardiovascular serious adverse event, patients N (%): 0 (0%)
  Treatment-related serious adverse event, patients N (%): 1 (1%)
In vivo
  Ablation, % of patients: (16%)
  Ablation, number of patients: 21
  Additional ECV After Successful SR, % of patients: (28%)
  Additional ECV After Successful SR, number of patients: 37
  Anti-Arrhythmic Therapy, % of patients: (34%)
  Anti-Arrhythmic Therapy, number of patients: 46
  Appropriate Firing of on ICD, % of patients: (0%)
  Appropriate Firing of on ICD, number of patients: 0
  Bradycardia AEs: none
  Rate Control Therapy, % of patients: (15%)
  Rate Control Therapy, number of patients: 20
[4]
  HEADACHE, % of patients: (4.5%)
  HEADACHE, number of patients: 6
  INFECTIONS AND INFESTATIONS, % of patients: (26.9%)
  INFECTIONS AND INFESTATIONS, number of patients: 36
  INFLUENZA, % of patients: (3.0%)
  INFLUENZA, number of patients: 4
  UPPER RESPIRATORY TRACT INFECTION, % of patients: (5.2%)
  UPPER RESPIRATORY TRACT INFECTION, number of patients: 7
treatment-emergent serious AE
  INFECTIONS AND INFESTATIONS, % of patients: (4.5%)
  INFECTIONS AND INFESTATIONS, number of patients: 6
